Values quoted from earlier work, collected in patent publication US20180243207A1, “DUAL-RELEASE FLEXIBLE F[…] IN […] HOSPICE CARES OF ELDERLY PATIENTS” (priority 2017, published 2018).

How the values were obtained:
α3-GABAA receptors = target: T1, α3-GABAA receptors (Homo sapiens, UniProt P18507+P34903)
T1 sequence (P34903 29-492): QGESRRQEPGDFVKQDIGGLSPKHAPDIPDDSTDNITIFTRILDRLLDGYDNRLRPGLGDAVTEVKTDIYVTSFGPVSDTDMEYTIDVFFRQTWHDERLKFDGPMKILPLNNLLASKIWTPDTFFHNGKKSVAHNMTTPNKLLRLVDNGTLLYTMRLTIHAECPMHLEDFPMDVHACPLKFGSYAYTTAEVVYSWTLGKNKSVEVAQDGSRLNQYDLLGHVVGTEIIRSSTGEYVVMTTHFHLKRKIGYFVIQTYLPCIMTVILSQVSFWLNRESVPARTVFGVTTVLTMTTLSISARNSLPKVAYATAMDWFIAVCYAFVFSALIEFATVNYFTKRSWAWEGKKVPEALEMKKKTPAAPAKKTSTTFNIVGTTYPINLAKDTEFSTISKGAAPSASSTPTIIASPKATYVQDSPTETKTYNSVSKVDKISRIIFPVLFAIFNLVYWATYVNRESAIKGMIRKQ
T1 sequence (P18507 40-467 limits assumed): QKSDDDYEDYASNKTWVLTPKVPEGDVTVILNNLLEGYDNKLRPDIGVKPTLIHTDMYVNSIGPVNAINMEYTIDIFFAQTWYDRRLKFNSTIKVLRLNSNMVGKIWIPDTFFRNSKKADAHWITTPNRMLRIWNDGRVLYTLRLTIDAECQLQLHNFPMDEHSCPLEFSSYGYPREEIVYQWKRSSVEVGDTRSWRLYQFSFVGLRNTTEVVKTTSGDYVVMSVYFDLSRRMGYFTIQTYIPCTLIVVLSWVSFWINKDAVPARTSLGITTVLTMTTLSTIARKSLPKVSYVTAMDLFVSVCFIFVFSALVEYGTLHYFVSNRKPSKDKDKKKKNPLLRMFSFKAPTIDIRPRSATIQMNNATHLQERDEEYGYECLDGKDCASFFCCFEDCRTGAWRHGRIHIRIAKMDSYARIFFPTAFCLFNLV
T1 sequence (P28472 26-473 partner): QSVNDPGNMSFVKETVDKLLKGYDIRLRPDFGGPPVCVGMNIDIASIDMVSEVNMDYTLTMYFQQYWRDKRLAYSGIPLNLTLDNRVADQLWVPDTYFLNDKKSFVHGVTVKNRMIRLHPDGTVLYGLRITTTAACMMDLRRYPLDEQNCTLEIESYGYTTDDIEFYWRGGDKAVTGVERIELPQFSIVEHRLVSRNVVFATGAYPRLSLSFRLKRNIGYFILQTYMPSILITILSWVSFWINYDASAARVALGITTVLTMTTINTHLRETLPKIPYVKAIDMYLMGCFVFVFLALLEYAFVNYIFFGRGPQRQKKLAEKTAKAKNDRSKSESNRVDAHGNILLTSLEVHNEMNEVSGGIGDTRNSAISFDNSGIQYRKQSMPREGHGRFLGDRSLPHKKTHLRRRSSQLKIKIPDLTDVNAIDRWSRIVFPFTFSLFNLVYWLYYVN

α2-GABAA receptors = target: T2, α2-GABAA receptors (Homo sapiens, UniProt P18507+P47869)
T2 sequence (P47869 29-451): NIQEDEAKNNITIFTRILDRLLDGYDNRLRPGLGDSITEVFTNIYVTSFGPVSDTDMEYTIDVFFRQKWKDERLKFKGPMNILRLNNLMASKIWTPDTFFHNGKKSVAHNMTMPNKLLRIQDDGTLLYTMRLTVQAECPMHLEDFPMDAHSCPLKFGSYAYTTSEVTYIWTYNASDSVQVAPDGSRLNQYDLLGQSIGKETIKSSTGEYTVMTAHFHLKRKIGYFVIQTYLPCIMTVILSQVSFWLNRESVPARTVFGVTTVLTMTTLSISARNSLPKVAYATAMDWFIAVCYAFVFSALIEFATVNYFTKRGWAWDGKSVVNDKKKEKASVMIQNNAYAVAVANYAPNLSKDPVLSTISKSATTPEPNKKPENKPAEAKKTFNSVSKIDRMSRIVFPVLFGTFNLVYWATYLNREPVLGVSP
T2 sequence (P18507 40-467 limits assumed): T1 sequence (P18507 40-467 limits assumed)
T2 sequence (P28472 26-473 partner): T1 sequence (P28472 26-473 partner)

## O=C1Nc2ccc(Cl)cc2C(c2ccccc2Cl)=NC1O (centres unmarked) [Lorazepam]
α3-GABAA receptors
  affinity to α3-GABAA receptors: high
α2-GABAA receptors
  affinity to α2-GABAA receptors: intermediate
